PMC8339067 (NPJ Breast Cancer, 2021)
Read-outs that look alike come from different tables or passages of the source.

What was measured:
[1] = cited from earlier work
[2] = rats, single dose of the conjugate with trastuzumab, radiolabeled; cited from earlier work
[3] = single agent, cited from earlier work
[4] = Ribociclib plasma pharmacokinetics with T-DM1 (LC-MS/MS, noncompartmental); type: in vivo, human; settings: for AUC: read-out: AUC24
Excerpt: Additional samples were collected according to this same schedule after the drug was taken for at least 8 days consecutive without interruption to define its steady-state pharmacokinetics. […] The assay was validated and applied to the analysis of study samples according to the recommendations in the current U.S. Food and Drug Administration Guidance for Industry on Bioanalytical Method Validation (https://www.fda.gov/drugs/-guidance-compliance-regulatory-information/guidances-drugs). […] Actual time points were calculated as the difference between the blood sample collection time and the time that the drug was taken. The plasma concentration-time data were analyzed by noncompartmental methods using model 200 for extravascular drug input in WinNonlin Professional version 5.0.1 (Pharsight Corp, Mountain View, CA). The area under the plasma concentration-time curve from the time of dosing to the time of the last sample collected prior to administration of the next dose (AUC24) was estimated using the linear-log trapezoidal method. Total oral clearance (CL/F) was calculated as the dose divided by the AUC24 for the dose given on days 19–21. Pharmacokinetic parameters are reported as the geometric mean (geometric CV%) of the values for individual patients at each dose level. GraphPad Prism for Windows, version 8.4.3 (GraphPad Software, La Jolla, CA) was used for the statistical analysis and graphical presentation of the pharmacokinetic data.

[5] = 300 mg, dose no. 11-12 (steady state), 3 patients, geometric mean
[6] = 400 mg, dose no. 13 (steady state), 1 patient
[7] = 500 mg, dose no. 12 (steady state), 2 patients, geometric mean
[8] = 600 mg, dose no. 13 (steady state), 1 patient

For `COc1cc2cc(c1Cl)N(C)C(=O)C[C@H](OC(=O)[C@H](C)N(C)C(=O)CCS)[C@]1(C)O[C@H]1[C@H](C)[C@@H]1C[C@@](O)(NC(=O)O1)[C@H](OC)/C=C/C=C(\C)C2` [DM1], the Half-life [1] is given as “approximately 4 days” and the “Time to complete clearance” value [2] is given as no more than 5 days.
In the case of `CN(C)C(=O)c1cc2cnc(Nc3ccc(N4CCNCC4)cn3)nc2n1C1CCCC1` [ribociclib], the “Geometric mean apparent oral clearance” value ([3]; 400 mg QD, four patients, CV 59.2%) is listed as 35.3 L/h, the “Geometric mean apparent oral clearance” value ([3]; 600 mg QD, 53 patients, CV 65.7%) is listed as 25.5 L/h and the Cmin ([4]; 300 mg, dose no. 1, 3 patients, geometric mean, lowest calibration concentration 1.0 ng/mL) is listed as “< LLQ”. The CL/F [4, 5] was 38.6 L/h, the Cmin [4, 5] was 141.7 ng/mL and the Cmin ([4]; 400 mg, dose no. 1, 3 patients, geometric mean, lowest calibration concentration 1.0 ng/mL) was “< LLQ”. The CL/F [4, 6] was 47.4 L/h, the Cmin [4, 6] was 125.6 ng/mL and the Cmin ([4]; 500 mg, dose no. 1, 3 patients, geometric mean, lowest calibration concentration 1.0 ng/mL) was “< LLQ”. For the same molecule, the AUC24 [4, 7] was 8,958 ng•h/mL, the CL/F [4, 7] was 55.8 L/h and the Cmax [4, 7] was 702.8 ng/mL. The Cmin [4, 7] was 178.7 ng/mL, the Cmin ([4]; 600 mg, dose no. 1, 3 patients, geometric mean, lowest calibration concentration 1.0 ng/mL) was “< LLQ” and the CL/F [4, 8] was 27.3 L/h. The Cmin [4, 8] was 493.9 ng/mL, the “Overall geometric mean apparent oral clearance” value ([4]; from AUC24 at steady state, 7 patients, CV 28.1%) was 42.1 L/h and the AUC ([4]; human, plasma, oral, 300 mg, dose no. 1, 3 patients, geometric mean) was 5330 ng·h/mL. It also gave a Cmax ([4]; human, plasma, oral, 300 mg, dose no. 1, 3 patients, geometric mean, read-out: Cmax) of 505 ng/mL, an AUC ([4]; human, plasma, oral, 300 mg, dose no. 11-12 (steady state), 3 patients, geometric mean) of 7770 ng·h/mL and a Cmax ([4]; human, plasma, oral, 300 mg, dose no. 11-12 (steady state), 3 patients, geometric mean, read-out: Cmax) of 608 ng/mL. The AUC ([4]; human, plasma, oral, 400 mg, dose no. 1, 3 patients, geometric mean) was 7980 ng·h/mL, the Cmax ([4]; human, plasma, oral, 400 mg, dose no. 1, 3 patients, geometric mean, read-out: Cmax) was 735 ng/mL and the AUC ([4]; human, plasma, oral, 400 mg, dose no. 13 (steady state), 1 patient) was 8430 ng·h/mL. It also gave a Cmax ([4]; human, plasma, oral, 400 mg, dose no. 13 (steady state), 1 patient, read-out: Cmax) of 871 ng/mL, an AUC ([4]; human, plasma, oral, 500 mg, dose no. 1, 3 patients, geometric mean) of 4830 ng·h/mL and an AUC ([4]; human, plasma, oral, 600 mg, dose no. 1, 3 patients, geometric mean) of 11800 ng·h/mL. It also gave a Cmax ([4]; human, plasma, oral, 600 mg, dose no. 1, 3 patients, geometric mean, read-out: Cmax) of 1270 ng/mL, an AUC ([4]; human, plasma, oral, 600 mg, dose no. 13 (steady state), 1 patient) of 22000 ng·h/mL and a Cmax ([4]; human, plasma, oral, 600 mg, dose no. 13 (steady state), 1 patient, read-out: Cmax) of 1740 ng/mL. For the same molecule, the “Apparent oral clearance greater than with single agent” value ([4]; present trial versus single-agent 400 and 600 mg QD) was 19–65%.
